Reference: ChEMBL document CHEMBL3804815, “Aloperine and Its Derivatives as a New Class of HIV-1 Entry Inhibitors” (ACS Med Chem Lett, 2016)
Active and inactive are the calls of the source. The rule behind the calls is not given here.

Columns and labels:
[1] = Cytotoxicity against human MT4 cells assessed as reduction in cell viability after 3 days by CellTiter-Glo luminescent assay; assay type: cell-based
[2] = system: Human immunodeficiency virus 1; assay: Antiviral activity against HIV1 NL4-3 infected in human MT4 cells assessed as reduction in viral replication measured on day 3 post infection by Nano-Glo luciferase reporter gene assay; assay type: functional, organism-based; settings: Human immunodeficiency virus 1, NL4-3, MT4, 72 h
COS [3] = assay: Inhibition of BMS-806 resistant HIV1 YU2 gp120 T198P mutant-induced cell-cell fusion between viral envelope expressing African green monkey COS cells to CCR5 receptor expressing human TZM-bl cells at 5 uM after overnight incubation by Bright-Glo luciferase assay; assay type: cell-based; settings: Human immunodeficiency virus type 1 (isolate YU2)
[4] = Inhibition of HIV1 YU2 gp120-induced cell-cell fusion between viral envelope expressing African green monkey COS cells to CCR5 receptor expressing human TZM-bl cells after overnight incubation by Bright-Glo luciferase assay; assay type: cell-based, Human immunodeficiency virus type 1 (isolate YU2); settings: Human immunodeficiency virus 1, COS
COS [5] = assay: Inhibition of HIV1 8X gp120-induced cell-cell fusion between viral envelope expressing African green monkey COS cells and human TZM-bl cells up to 5 uM after overnight incubation by Bright-Glo luciferase assay; assay type: cell-based; settings: Human immunodeficiency virus 1
COS [6] = assay: Inhibition of HIV1 YU2 gp120-induced cell-cell fusion between viral envelope expressing African green monkey COS cells to CCR5 receptor expressing human TZM-bl cells at 0.01 to 10 uM after overnight incubation by Bright-Glo luciferase assay; assay type: cell-based; settings: Human immunodeficiency virus type 1 (isolate YU2)
COS [7] = assay: Inhibition of HIV1 NL4-3 Env-induced cell-cell fusion between viral envelope expressing African green monkey COS cells to CXCR4 receptor expressing human TZM-bl cells at 0.01 to 10 uM after overnight incubation by Bright-Glo luciferase assay; assay type: cell-based; settings: Human immunodeficiency virus 1

Row | SMILES | EC50 [2] | CC50 at 72 h [1] | other results
1 | Cc1ccc(C(=O)NCCCCN2CCCC3=C[C@H]4C[C@H](CN5CCCC[C@H]45)[C@@H]32)cc1 | 4.98 µM | > 47.5 µM | –
2 | O=C(NCCCCCCN1CCCC2=C[C@H]3C[C@H](CN4CCCC[C@H]34)[C@@H]21)c1ccc(OC(F)(F)F)cc1 | 5.44 µM | 18.5 µM | –
3 | O=C(NCCCN1CCCC2=C[C@H]3C[C@H](CN4CCCC[C@H]34)[C@@H]21)c1ccc(OC(F)(F)F)cc1 | > 10 µM | > 41.9 µM | –
4 | O=C(NCCCCCN1CCCC2=C[C@H]3C[C@H](CN4CCCC[C@H]34)[C@@H]21)c1ccc(OC(F)(F)F)cc1F | 6.21 µM | > 38.2 µM | –
5 | FC(F)(F)Oc1ccc(CNCCCCN2CCCC3=C[C@H]4C[C@H](CN5CCCC[C@H]45)[C@@H]32)cc1 | 4.2 µM | 6.2 µM | –
6 | CN1CCCC2=C[C@H]3C[C@H](CN4CCCC[C@H]34)[C@@H]21 | > 10 µM | > 81.3 µM | –
7 | C1=C2CCCN(CCCCCNCc3ccccc3)[C@H]2[C@@H]2C[C@H]1[C@H]1CCCCN1C2 | 0.84 µM | 25.1 µM | –
8 | NCCCN1CCCC2=C[C@H]3C[C@H](CN4CCCC[C@H]34)[C@@H]21 | > 10 µM | > 69.4 µM | –
9 | COc1ccnc2[nH]cc(C(=O)C(=O)N3CCN(C(=O)c4ccccc4)C[C@H]3C)c12 | – | – | inhibition (COS [3]): inactive; EC50 [4]: 0.1 µM; inhibition (COS [5]): inactive
10 | O=C(/C=C/c1ccc2c(c1)OCO2)NCCCCN1CCCC2=C[C@H]3C[C@H](CN4CCCC[C@H]34)[C@@H]21 | 3.17 µM | > 41.9 µM | –
11 | C=C(C)[C@@H]1CC[C@]2(C(=O)NCCCCCCCNC(C)=O)CC[C@]3(C)[C@H](CC[C@@H]4[C@@]5(C)CC[C@H](O)C(C)(C)[C@@H]5CC[C@]43C)[C@@H]12 | 0.025 µM | > 32.8 µM | inhibition (COS [6]): Active; inhibition (COS [7]): Active
12 | O=C(/C=C/c1ccc(OC(F)(F)F)cc1)NCCCCN1CCCC2=C[C@H]3C[C@H](CN4CCCC[C@H]34)[C@@H]21 | 2.06 µM | 9.02 µM | –

Second part, led by results:

Row | EC50 [2] | SMILES | CC50 at 72 h [1] | other results
13 | > 10 µM | O=C(NCCCCN1CCCC2=C[C@H]3C[C@H](CN4CCCC[C@H]34)[C@@H]21)c1ccccc1 | > 49.1 µM | –
14 | 3.14 µM | O=C(NCCCCN1CCCC2=C[C@H]3C[C@H](CN4CCCC[C@H]34)[C@@H]21)c1ccc(OC(F)(F)F)cc1F | > 39.3 µM | –
15 | 8 µM | NCCCCN1CCCC2=C[C@H]3C[C@H](CN4CCCC[C@H]34)[C@@H]21 | > 69.2 µM | –
16 | 7.98 µM | O=C(/C=C/c1ccc2c(c1)OCO2)NCCCN1CCCC2=C[C@H]3C[C@H](CN4CCCC[C@H]34)[C@@H]21 | > 43.2 µM | –
17 | 4.57 µM | O=C(NCCCCN1CCCC2=C[C@H]3C[C@H](CN4CCCC[C@H]34)[C@@H]21)c1ccc(O)cc1 | > 47.3 µM | –
18 | > 10 µM | O=C(NCCCCN1CCCC2=C[C@H]3C[C@H](CN4CCCC[C@H]34)[C@@H]21)c1ccc(F)cc1 | > 47.1 µM | –
19 | > 10 µM | NCCN1CCCC2=C[C@H]3C[C@H](CN4CCCC[C@H]34)[C@@H]21 | > 73 µM | –
